From US9849129B2, “Sodium channel blockers for skin disorders” (PARION SCIENCES, INC., priority 2015, dated 2017)

Key:
mouse corneas = experiment: Confocal microscopy of drug penetration in mouse corneas; settings: one hour after application to corneal epithelium, 37° C. (FIG. 2)
Description: Corneal cells were labeled using calcein-AM dye by incubating with corneas for 45 minutes at 37° C. in DMEM media. […] Serial x-y images were obtained one hour post-drug addition by confocal microscopy. […] Pharmacological Effects and Mechanism of Action of the Drug in Animals

Bronchial cells = experiment: Apical disappearance assay (epithelial absorption); type: in vitro ADME; settings: for Epithelial Uptake Rate: apical surface, initial concentration 10 μM
Description: Bronchial cells (dog, human, sheep, or rodent cells) are seeded at a density of 0.25×10^6/cm^2 on a porous Transwell-Col collagen-coated membrane with a growth area of 1.13 cm^2 grown at an air-liquid interface in hormonally defined media that promotes a polarized epithelium. From 12 to 20 days after development of an air-liquid interface (ALI) the cultures are expected to be >90% ciliated, and mucins will accumulate on the cells. To ensure the integrity of primary airway epithelial cell preparations, the transepithelial resistance (Rt) and transepithelial potential differences (PD), which are indicators of the integrity of polarized nature of the culture, are measured. Human cell systems are preferred for studies of rates of absorption from apical surfaces. […] A series of samples (5 μl volume per sample) is collected at various time points, including 0, 5, 20, 40, 90 and 240 minutes. Concentrations are determined by measuring intrinsic fluorescence of each sodium channel blocker using a Fluorocount Microplate Flourometer or HPLC. Quantitative analysis employs a standard curve generated from authentic reference standard materials of known concentration and purity. Data analysis of the rate of disappearance is performed using nonlinear regression, one phase exponential decay (Prism V 3.0).

[1] = system: primary human airway epithelial cells; experiment: Confocal microscopy assay of amiloride congener uptake, airway epithelial cells; type: cell-based; settings: 10 uM apical, 60 minute incubation (FIG. 1)
Description: FIG. 1. […] Benzamil or Compound 2 (10 uM each) were added to the apical compartment of primary human airway epithelial cells. After a 60 minute incubation, the compounds were visualized by confocal microscopy.
Virtually all amiloride-like molecules fluoresce in the ultraviolet range. This property of these molecules may be used to directly measure cellular update using x-z confocal microscopy. […] Serial x-z images are obtained with time and the magnitude of fluorescence accumulating in the cellular compartment is quantitated and plotted as a change in fluorescence versus time.
Primary HBE cells were placed in an apparatus designed to position transwell membrane supports on a confocal microscope stage (Leica, Wetzlar, Germany). The glycocalyx and cilia were labeled with 3 μM wheat germ agglutinin-fluorescein (Molecular Probes, Eugene, Oreg.) for 45 mm at 37° C. to visualize the apical domain of HBE cell cultures. The autofluorescence of the cells was acquired prior to apical compound addition. Images were acquired with a 63× water immersion lens in the x-z plane. Benzamil was added to the mucosal compartment (10 μM; 350 μl), and images were recorded serially from 0 to 5 mm.

[2] = molecular target: T1, airway epithelial sodium currents (epithelial sodium channel, ENaC) (UniProt A0A8I3MKE6+A0A8I3Q679+Q95165); experiment: Sodium channel blocking activity: short circuit current (ISC) in airway epithelial monolayers in Ussing chambers; settings: for IC50: read-out: Potency of Sodium Channel Blockade (IC50), lumenal addition, airway epithelial monolayers (human, dog, sheep or rodent cells, not specified)
T1 sequence (A0A8I3MKE6 1-646): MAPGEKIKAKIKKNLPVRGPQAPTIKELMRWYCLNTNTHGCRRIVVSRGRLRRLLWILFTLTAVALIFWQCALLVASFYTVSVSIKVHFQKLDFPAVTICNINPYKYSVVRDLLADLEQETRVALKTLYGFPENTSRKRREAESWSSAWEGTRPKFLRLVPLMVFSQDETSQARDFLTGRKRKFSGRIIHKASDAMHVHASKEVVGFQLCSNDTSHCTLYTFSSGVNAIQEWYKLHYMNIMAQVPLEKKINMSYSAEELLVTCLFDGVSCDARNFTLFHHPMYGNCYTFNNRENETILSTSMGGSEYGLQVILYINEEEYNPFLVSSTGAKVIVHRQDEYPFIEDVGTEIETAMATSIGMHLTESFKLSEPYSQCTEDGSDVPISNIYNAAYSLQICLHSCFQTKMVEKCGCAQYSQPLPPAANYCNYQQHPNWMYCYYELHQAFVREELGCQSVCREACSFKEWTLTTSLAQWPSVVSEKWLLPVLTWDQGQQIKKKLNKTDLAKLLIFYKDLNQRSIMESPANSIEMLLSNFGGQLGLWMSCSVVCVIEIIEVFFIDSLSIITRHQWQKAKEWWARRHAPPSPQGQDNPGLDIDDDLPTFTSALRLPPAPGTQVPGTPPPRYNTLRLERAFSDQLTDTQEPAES
T1 sequence (A0A8I3Q679 1-649): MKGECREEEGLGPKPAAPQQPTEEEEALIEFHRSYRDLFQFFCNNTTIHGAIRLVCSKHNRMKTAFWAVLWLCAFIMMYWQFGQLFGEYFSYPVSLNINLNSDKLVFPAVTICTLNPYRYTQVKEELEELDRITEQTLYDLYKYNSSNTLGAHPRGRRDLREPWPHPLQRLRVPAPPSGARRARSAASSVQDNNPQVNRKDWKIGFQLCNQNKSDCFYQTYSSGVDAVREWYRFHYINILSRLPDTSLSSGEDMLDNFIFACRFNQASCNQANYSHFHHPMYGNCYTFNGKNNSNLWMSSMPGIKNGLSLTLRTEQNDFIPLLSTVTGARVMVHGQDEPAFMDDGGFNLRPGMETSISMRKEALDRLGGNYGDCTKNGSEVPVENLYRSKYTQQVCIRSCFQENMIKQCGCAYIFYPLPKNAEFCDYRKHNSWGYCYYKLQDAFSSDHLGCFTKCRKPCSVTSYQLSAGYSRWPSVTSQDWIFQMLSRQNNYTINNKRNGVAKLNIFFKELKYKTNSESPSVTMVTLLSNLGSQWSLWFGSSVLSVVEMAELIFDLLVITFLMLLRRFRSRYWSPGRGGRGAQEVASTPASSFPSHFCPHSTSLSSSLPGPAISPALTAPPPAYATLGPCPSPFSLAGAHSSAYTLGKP
T1 sequence (Q95165 1-641): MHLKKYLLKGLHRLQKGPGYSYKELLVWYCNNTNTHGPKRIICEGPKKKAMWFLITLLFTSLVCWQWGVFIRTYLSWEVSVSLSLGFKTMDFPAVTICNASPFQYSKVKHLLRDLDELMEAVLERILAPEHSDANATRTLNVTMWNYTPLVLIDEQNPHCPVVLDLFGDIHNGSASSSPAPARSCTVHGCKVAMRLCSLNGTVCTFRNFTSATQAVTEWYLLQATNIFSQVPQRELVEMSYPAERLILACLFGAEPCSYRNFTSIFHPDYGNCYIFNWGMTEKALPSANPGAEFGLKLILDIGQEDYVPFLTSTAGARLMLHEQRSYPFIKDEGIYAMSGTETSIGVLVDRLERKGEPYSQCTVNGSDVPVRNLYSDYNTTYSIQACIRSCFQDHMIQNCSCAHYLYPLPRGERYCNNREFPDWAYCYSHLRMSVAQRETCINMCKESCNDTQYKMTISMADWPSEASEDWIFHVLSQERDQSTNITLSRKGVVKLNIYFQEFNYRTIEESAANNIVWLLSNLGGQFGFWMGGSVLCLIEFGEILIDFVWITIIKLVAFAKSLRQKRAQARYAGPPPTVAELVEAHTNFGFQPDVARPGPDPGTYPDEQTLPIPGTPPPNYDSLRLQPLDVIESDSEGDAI
Description: One assay used to assess mechanism of action and/or potency of the compounds of the present invention involves the determination of lumenal drug inhibition of airway epithelial sodium currents measured under short circuit current (ISC) using airway epithelial monolayers mounted in Ussing chambers. Cells obtained from freshly excised human, dog, sheep or rodent airways are seeded onto porous 0.4 micron Snapwell™ Inserts (CoStar), cultured at air-liquid interface (ALI) conditions in hormonally defined media, and assayed for sodium transport activity (ISC) while bathed in Krebs Bicarbonate Ringer (KBR) in Ussing chambers. […] All drugs are prepared in dimethyl sulfoxide as stock solutions at a concentration of 1×10^−2 M and stored at 20° C. […] After the maximal concentration (5×10^−5 M) is administered, the lumenal bath is exchanged three times with fresh, drug-free KBR solution, and the resultant ISC measured after each wash for approximately 5 minutes in duration. Reversibility is defined as the percent return to the baseline value for sodium current after the third wash. All data from the voltage clamps are collected via a computer interface and analyzed off-line.
Dose-effect relationships for all compounds are considered and analyzed by the Prism 3.0 program.

Compound	Epithelial Uptake Rate (Bronchial cells) [nM/cm^2/min]	Cellular penetration/uptake seen by confocal microscopy ([1]; listed as benzamil)	IC50 [2] [nM]	Fold Decrease in Apical Absorption (Relative to Amiloride) (Bronchial cells)	Fold Increase in Potency (Relative to Amiloride) [2]	Corneal penetration seen by confocal microscopy (mouse corneas)	Cellular penetration/uptake seen by confocal microscopy [1]
N=C(NCCCCc1ccc(OCC(O)CO)cc1)NC(=O)c1nc(Cl)c(N)nc1N (stereo not drawn) [Compound 1]			7.4		105		
N=C(N)NCCCC[C@@H](N)C(=O)NCCCN(CCCNC(=O)[C@H](N)CCCCNC(=N)N)CCOc1ccc(CCCCNC(=N)NC(=O)c2nc(Cl)c(N)nc2N)cc1 [Compound 3]			3.2		244	remains associated with the apical (epithelial) surface	
N=C(NCCCCc1ccc(OCCN(CCCc2ccccc2)C[C@H](O)[C@@H](O)[C@H](O)[C@H](O)CO)cc1)NC(=O)c1nc(Cl)c(N)nc1N [Compound 5]	0.2		6.6	10.0	118		
N=C(NCCCCc1ccc(OCCN(CCCc2cccc3ccccc23)C[C@H](O)[C@@H](O)[C@H](O)[C@H](O)CO)cc1)NC(=O)c1nc(Cl)c(N)nc1N [Compound 6]			5.9		186		

Now from value to molecule, other results behind:

Epithelial Uptake Rate (Bronchial cells) [nM/cm^2/min]	Cellular penetration/uptake seen by confocal microscopy ([1]; listed as benzamil)	IC50 [2] [nM]	Fold Decrease in Apical Absorption (Relative to Amiloride) (Bronchial cells)	Fold Increase in Potency (Relative to Amiloride) [2]	Compound	Corneal penetration seen by confocal microscopy (mouse corneas)	Cellular penetration/uptake seen by confocal microscopy [1]
2					N=C(N)NC(=O)c1nc(Cl)c(N)nc1N [Amiloride, reference compound]	can fully penetrate the cornea	
6.6	rapidly taken up by the cells	46	0.3		NC(=NCc1ccccc1)NC(=O)c1nc(Cl)c(N)nc1N [Benzamil]		largely concentrated inside cells
0.2		10.2	10.0	77	N=C(N)NCCOc1ccc(CCCCNC(=N)NC(=O)c2nc(Cl)c(N)nc2N)cc1 [Compound 2]		concentrated on the exterior cell surface
9.0		116	0.2	6.5	NC(=Nc1ccccc1)NC(=O)c1nc(Cl)c(N)nc1N [Phenamil, reference compound]		
